According to ChEMBL document CHEMBL1201862, “PubChem BioAssay data set” (2004):
Calls of active or inactive are those of the source.

What was measured:
[1] = molecular target: T1, Sphingosine 1-phosphate receptor 2 (Homo sapiens, UniProt O95136); assay: Dose Response Cell Based Assay for Agonists of the S1P2 Receptor of Purchased Analogues. [Related pubchem assays: 729, 843, 854, 736 ]; type: functional
[2] = molecular target: Prothrombin (Homo sapiens, UniProt P00734); assay: Thrombin 1536 HTS Dose Response Confirmation. [Related pubchem assays: 1046 (Thrombin 1536 HTS; hits were confirmed in this assay)]; type: functional
[3] = molecular target: T2, Coagulation factor XII (Homo sapiens, UniProt P00748); type: functional;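 also: activated factor XIIa alpha cleaving a fluorogenic AMC peptide substrate; inhibitor potency from loss of enzyme activity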
T2 sequence (P00748 whole entry): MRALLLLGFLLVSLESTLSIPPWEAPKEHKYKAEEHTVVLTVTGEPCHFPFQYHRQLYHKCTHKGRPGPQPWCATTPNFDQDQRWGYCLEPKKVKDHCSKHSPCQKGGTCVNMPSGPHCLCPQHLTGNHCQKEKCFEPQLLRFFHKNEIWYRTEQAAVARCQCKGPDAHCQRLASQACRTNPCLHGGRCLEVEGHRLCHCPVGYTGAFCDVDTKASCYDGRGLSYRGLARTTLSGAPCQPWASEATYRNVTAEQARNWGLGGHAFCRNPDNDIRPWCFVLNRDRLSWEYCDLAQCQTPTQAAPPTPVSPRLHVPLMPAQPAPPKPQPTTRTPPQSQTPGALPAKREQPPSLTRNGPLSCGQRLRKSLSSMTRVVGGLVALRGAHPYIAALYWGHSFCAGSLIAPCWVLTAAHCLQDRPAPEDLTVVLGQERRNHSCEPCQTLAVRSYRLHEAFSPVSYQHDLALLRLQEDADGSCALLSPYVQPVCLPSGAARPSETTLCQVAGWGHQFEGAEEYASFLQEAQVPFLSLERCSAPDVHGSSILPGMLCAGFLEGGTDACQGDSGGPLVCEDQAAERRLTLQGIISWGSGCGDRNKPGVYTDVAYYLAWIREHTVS

[4] = molecular target: Epstein-Barr nuclear antigen 1 (Epstein-Barr virus (strain B95-8) (HHV-4) (Human herpesvirus 4), UniProt P03211); assay: EBNA-1 inhibitors, dose response, biochemical, fluorescence polarization, 1536-well (AID 2381); parameters: species or system human gammaherpesvirus 4;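 also: fluorescence polarization of a Cy5 DNA probe bound by EBNA-1 protein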
Sequence of Epstein-Barr nuclear antigen 1 (P03211 whole entry): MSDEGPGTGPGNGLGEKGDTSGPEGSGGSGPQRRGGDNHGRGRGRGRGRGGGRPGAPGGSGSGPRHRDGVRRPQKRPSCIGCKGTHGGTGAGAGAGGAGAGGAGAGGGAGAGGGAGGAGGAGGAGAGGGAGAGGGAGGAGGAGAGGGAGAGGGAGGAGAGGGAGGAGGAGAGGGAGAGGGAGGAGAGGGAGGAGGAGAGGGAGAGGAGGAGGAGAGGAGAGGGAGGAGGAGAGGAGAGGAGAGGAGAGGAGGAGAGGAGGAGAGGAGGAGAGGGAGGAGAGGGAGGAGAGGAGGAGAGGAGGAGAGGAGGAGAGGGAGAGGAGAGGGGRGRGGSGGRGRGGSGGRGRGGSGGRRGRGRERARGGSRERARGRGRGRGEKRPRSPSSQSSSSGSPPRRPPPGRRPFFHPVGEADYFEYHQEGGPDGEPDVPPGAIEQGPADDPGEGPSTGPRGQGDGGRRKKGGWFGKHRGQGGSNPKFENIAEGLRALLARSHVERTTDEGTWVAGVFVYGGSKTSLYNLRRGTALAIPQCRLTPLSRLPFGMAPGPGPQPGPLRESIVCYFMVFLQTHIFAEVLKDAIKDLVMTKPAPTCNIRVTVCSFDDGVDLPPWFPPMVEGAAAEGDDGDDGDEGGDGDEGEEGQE

[5] = molecular target: Lytic switch protein BZLF1 (Epstein-Barr virus (strain B95-8) (HHV-4) (Human herpesvirus 4), UniProt P03206); assay: EBV ZTA inhibitors, dose response, counter-screen for EBNA-1 inhibitor project, biochemical, fluorescence polarization, Epstein-Barr virus, 1536-well (AID 2377); parameters: species or system human gammaherpesvirus 4;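 also: fluorescence polarization of Cy5-labelled ZRE DNA probe bound by purified Zta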
Sequence of Lytic switch protein BZLF1 (P03206 whole entry): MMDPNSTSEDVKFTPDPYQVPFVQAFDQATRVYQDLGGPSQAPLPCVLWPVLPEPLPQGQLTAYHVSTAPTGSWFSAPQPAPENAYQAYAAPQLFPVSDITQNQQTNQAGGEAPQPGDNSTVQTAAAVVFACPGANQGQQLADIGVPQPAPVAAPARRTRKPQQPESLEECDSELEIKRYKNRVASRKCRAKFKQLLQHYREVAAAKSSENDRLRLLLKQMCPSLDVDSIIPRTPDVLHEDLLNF

[6] = molecular target: T1, Sphingosine 1-phosphate receptor 2; assay: Dose Response Cell Based Assay for Agonists of the S1P2 Receptor. [Related pubchem assays: 729, 736, 843 ]; type: functional
[7] = molecular target: 14-3-3 protein gamma (Homo sapiens, UniProt P61981); assay: modulators of 14-3-3 gamma client binding – dose response (AID 711); type: functional
Sequence of 14-3-3 protein gamma (P61981 whole entry): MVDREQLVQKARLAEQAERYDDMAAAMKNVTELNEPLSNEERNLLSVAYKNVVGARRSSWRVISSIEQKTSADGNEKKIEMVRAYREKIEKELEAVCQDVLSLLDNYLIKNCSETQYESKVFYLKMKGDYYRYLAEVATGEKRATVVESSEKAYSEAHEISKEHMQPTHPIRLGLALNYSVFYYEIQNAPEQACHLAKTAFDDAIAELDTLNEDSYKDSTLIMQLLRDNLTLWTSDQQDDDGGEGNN

[8] = system: Vero; assay: West Nile virus antiviral activity, cell-based, CPE readout (AID 1621); type: functional; conditions: Chlorocebus sabaeus
[9] = HeLa cell cytotoxicity, dose response, cytotoxicity control for MgcRacGAP inhibitor project (AID 624300); type: functional
[10] = molecular target: T3, Rac GTPase-activating protein 1 (Homo sapiens, UniProt Q9H0H5); assay: MgcRacGAP GTPase-activating activity inhibitors, confirmation, biochemical, ADP Hunter fluorescence, primary and confirmatory (AID 624330); type: functional
T3 sequence (Q9H0H5 whole entry): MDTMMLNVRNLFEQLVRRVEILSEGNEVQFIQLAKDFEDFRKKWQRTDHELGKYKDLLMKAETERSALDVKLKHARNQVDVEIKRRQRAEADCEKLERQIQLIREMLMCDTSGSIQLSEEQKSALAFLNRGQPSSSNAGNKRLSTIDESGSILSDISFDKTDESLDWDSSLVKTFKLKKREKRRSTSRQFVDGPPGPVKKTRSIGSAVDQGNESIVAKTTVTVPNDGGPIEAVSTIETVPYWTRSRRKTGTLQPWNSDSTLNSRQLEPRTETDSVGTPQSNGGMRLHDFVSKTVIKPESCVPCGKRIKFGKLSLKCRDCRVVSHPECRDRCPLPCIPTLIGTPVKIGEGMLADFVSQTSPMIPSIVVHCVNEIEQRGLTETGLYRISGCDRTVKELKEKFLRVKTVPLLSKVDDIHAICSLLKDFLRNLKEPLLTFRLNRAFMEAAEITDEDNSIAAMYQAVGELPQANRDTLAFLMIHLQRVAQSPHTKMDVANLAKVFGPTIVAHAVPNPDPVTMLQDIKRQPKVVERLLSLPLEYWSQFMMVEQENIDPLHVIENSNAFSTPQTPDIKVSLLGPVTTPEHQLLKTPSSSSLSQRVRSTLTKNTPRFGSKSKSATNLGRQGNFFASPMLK

[11] = molecular target: NADPH oxidase 1 (Homo sapiens, UniProt Q9Y5S8); assay: Late-stage luminescence-based cell-based dose response assay to identify inhibitors of NADPH oxidase 1 (NOX1): Synthesized analogs 3.; type: functional
Sequence of NADPH oxidase 1 (Q9Y5S8 whole entry): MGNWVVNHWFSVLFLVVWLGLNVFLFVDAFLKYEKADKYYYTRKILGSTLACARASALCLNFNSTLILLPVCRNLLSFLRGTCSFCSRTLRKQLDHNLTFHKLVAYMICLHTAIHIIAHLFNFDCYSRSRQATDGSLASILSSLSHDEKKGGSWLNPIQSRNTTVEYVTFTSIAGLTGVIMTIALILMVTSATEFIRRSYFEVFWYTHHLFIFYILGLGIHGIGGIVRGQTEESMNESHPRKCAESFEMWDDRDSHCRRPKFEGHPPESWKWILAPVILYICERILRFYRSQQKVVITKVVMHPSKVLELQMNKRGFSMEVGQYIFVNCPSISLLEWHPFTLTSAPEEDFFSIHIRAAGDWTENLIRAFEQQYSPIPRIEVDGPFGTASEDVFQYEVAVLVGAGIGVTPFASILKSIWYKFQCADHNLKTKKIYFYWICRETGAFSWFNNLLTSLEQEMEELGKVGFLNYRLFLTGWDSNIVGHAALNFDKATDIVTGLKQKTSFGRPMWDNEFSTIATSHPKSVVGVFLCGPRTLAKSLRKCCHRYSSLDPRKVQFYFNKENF

[12] = molecular target: Mitogen-activated protein kinase 10 (Homo sapiens, UniProt P53779); assay: Dose response biochemical screening assay for inhibitors of c-Jun N-Terminal Kinase 3 (JNK3). [Related pubchem assays: 746 ]
Sequence of Mitogen-activated protein kinase 10 (P53779 whole entry): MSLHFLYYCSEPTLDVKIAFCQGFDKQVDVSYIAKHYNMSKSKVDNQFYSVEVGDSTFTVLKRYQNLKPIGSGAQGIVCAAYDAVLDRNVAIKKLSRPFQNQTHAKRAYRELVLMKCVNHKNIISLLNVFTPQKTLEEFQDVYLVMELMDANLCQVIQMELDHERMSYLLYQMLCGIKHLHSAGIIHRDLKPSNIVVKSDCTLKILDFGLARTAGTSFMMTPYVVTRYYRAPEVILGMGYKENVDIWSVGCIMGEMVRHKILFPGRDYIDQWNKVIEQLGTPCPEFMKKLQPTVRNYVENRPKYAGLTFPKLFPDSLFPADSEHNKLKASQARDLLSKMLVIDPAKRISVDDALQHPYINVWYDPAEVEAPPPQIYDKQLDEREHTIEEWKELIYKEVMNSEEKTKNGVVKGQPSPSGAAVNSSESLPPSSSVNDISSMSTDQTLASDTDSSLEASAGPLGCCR

[13] = NIH-3T3 fibroblast cytotoxicity, dose response, cytotoxicity control, cell-based, fluorescence, Alamar Blue, secondary assay (AID 2327); type: functional;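 also: NIH-3T3 mouse fibroblasts cultured with fluconazole at 8 µg/mL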
[14] = molecular target: T4, Aminopeptidase N (Plasmodium falciparum FcB1/Columbia, UniProt O96935); assay: P. falciparum M1AAP inhibitors, biochemical, fluorogenic H-Leu-NHMec substrate, 1536-well (AID 1445); parameters: species or system Plasmodium falciparum 3D7, 3D7
T4 sequence (O96935 whole entry): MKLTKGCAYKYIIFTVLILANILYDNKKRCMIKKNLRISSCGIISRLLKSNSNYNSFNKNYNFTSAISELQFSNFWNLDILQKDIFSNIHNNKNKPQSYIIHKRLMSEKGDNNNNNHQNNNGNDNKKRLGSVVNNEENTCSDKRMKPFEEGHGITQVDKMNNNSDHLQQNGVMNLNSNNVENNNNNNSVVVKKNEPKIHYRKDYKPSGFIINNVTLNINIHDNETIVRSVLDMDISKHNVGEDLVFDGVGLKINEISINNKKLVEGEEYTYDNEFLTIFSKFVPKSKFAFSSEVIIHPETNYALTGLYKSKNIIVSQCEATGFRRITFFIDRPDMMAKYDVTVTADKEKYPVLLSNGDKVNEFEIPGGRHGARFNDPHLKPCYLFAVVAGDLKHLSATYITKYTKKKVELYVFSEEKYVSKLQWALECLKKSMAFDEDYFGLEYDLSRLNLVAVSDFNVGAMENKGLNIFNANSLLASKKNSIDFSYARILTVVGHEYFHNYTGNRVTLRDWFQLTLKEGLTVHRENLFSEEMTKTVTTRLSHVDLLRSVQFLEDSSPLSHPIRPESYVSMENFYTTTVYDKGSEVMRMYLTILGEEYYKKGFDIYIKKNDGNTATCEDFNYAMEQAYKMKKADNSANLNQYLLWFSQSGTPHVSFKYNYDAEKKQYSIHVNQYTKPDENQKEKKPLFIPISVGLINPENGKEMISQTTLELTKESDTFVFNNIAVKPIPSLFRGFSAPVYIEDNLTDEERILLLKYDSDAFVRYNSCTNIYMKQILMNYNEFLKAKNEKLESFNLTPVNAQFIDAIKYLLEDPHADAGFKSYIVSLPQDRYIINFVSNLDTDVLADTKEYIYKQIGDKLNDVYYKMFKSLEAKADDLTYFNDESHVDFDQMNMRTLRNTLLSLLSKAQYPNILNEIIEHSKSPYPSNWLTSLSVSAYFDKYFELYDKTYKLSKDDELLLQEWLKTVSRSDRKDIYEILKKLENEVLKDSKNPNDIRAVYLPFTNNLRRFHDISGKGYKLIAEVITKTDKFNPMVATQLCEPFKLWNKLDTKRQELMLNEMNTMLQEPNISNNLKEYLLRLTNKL

[15] = C. albicans growth with fluconazole, confirmation, fluorescence, retest (AID 2467); type: functional, cell-based
[16] = molecular target: Bifunctional protein GlmU (Mycobacterium tuberculosis, UniProt P9WMN3); assay: Inhibitors of Mycobacterial Glucosamine-1-phosphate acetyl transferase (GlmU). Secondary screen.; parameters: species or system Mycobacterium tuberculosis H37Rv
Sequence of Bifunctional protein GlmU (P9WMN3 whole entry): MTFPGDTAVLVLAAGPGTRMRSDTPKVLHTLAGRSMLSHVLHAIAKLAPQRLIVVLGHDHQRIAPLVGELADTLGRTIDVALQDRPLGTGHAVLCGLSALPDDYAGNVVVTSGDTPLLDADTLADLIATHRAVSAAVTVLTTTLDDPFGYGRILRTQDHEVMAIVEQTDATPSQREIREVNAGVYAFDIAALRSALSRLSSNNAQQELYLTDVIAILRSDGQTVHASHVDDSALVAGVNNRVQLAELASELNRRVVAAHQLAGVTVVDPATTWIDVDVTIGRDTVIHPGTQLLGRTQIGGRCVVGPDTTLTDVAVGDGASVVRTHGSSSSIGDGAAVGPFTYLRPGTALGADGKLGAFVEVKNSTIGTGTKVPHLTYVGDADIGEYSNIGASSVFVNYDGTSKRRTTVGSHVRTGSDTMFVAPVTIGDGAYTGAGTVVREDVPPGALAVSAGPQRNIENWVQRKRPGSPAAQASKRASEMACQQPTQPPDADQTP

[17] = molecular target: Genome polyprotein (dengue virus type 2, UniProt P29990); assay: Dengue-2 NS5 methyltransferase inhibitors, primary screen, biochemical, confirmation dose response (AID 588689); type: functional
Sequence of Genome polyprotein (P29990 2492-3391 limits assumed): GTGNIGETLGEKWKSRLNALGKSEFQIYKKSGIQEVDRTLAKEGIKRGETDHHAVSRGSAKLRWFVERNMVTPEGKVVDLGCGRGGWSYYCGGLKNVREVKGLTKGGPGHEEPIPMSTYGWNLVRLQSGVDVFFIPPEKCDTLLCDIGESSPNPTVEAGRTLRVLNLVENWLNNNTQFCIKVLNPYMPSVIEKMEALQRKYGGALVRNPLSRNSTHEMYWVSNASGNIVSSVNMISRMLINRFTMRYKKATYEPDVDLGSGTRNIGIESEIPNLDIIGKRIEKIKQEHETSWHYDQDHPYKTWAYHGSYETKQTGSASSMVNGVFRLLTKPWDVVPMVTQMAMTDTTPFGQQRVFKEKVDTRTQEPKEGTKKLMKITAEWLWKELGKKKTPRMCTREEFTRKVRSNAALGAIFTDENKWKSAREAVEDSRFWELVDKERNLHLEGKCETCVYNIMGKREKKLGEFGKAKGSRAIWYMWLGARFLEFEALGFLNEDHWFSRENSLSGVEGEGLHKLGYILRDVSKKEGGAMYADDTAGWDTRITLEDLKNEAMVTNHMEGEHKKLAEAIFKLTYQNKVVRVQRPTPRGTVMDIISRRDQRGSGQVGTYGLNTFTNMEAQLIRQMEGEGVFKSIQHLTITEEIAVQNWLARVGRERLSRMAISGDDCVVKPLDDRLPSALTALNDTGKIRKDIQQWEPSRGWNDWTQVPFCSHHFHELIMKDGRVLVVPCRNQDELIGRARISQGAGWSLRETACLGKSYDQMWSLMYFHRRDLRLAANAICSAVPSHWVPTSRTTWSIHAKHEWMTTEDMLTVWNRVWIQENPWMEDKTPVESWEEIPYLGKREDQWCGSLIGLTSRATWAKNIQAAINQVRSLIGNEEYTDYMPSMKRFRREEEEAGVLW

[18] = molecular target: T5, Carboxy-terminal domain RNA polymerase II polypeptide A small phosphatase 1 (Homo sapiens, UniProt Q9GZU7); assay: inhibitors of CTDSP1, concentration-response testing, biochemical assay, absorbance-based, actives from ultra-high-throughput screening (AID 540297); type: functional
T5 sequence (Q9GZU7 whole entry): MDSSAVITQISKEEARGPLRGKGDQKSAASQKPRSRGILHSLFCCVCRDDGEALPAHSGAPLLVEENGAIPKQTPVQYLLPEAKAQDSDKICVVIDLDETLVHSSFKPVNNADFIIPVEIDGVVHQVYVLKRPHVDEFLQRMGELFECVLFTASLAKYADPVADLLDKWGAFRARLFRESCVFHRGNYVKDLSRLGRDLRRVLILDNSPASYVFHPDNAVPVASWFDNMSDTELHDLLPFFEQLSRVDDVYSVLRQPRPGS

[19] = molecular target: Cytochrome P450 2C19 (Homo sapiens, UniProt P33261); assay: qHTS Assay for Inhibitors and Substrates of Cytochrome P450 2C19. [Related pubchem assays: 410 ]; type: ADME; conditions: read-out: Potency
Sequence of Cytochrome P450 2C19 (P33261 whole entry): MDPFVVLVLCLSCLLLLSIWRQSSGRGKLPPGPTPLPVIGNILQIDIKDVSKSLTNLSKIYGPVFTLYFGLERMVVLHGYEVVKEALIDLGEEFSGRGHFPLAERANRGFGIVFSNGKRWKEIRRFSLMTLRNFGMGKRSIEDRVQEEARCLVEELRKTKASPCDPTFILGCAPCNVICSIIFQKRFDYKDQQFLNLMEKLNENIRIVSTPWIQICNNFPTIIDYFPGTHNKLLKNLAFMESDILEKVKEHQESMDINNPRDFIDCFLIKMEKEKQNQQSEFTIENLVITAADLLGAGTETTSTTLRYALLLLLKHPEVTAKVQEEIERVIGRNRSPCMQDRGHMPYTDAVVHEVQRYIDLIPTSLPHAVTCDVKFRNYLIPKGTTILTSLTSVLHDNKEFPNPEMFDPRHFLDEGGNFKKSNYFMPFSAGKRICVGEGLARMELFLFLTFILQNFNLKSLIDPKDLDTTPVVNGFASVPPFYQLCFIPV

[20] = molecular target: T1, Sphingosine 1-phosphate receptor 2; assay: Dose Response Cell Based Assay for Antagonists of the S1P2 Receptor. [Related pubchem assays: 856, 736 ]; type: functional
[21] = molecular target: T6, Neuropeptide Y receptor type 2 (Homo sapiens, UniProt P49146); assay: NPY-Y2 antagonist potency, selectivity check, dose response, counter-screen for NPY-Y1 antagonist project, cell-based (AID 1278); type: functional
T6 sequence (P49146 whole entry): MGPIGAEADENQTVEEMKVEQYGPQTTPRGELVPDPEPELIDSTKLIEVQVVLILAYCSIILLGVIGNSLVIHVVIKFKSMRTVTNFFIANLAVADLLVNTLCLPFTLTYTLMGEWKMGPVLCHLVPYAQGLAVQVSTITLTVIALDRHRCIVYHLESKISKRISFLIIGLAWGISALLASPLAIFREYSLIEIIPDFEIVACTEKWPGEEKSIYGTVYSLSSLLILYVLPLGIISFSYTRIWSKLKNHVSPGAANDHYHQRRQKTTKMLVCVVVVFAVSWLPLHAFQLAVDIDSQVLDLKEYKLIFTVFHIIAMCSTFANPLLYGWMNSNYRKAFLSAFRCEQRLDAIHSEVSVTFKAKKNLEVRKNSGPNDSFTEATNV

[22] = molecular target: T7, Neuropeptide Y receptor type 1 (Homo sapiens, UniProt P25929); assay: NPY-Y1 receptor antagonist potency, dose response, cell-based (AID 1277); type: functional
T7 sequence (P25929 whole entry): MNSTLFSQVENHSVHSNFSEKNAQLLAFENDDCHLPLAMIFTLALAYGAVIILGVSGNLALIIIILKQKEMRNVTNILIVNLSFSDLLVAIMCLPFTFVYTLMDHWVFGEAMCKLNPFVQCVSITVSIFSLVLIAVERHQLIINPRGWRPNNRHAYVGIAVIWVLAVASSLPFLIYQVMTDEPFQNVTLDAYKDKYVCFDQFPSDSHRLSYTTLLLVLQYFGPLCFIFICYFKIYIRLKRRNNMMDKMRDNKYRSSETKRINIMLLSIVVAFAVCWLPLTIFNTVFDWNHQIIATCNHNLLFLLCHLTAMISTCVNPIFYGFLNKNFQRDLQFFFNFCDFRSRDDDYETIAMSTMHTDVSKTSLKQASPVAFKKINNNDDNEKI

[23] = Shn3 3'UTR reporter inhibitors, dose response, cell-based, Clone20 osteoblasts, firefly luciferase, cherry-picked (AID 624132); type: functional;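 also: firefly luciferase luminescence from reporter carrying the Shn3 3'UTR in osteoblasts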
[24] = HepG2 cell cytotoxicity, dose response, cytotoxicity control for Shn3 inhibitor project, CellTiter-Glo, cherry-picked (AID 624134); type: functional, cell-based
[25] = control 3'UTR Renilla luciferase suppression, dose response, counter-screen for Shn3 inhibitor project, cell-based, Clone20-Shn3RL, cherry-picked (AID 624133); type: functional
[26] = molecular target: Diphosphomevalonate decarboxylase (Streptococcus pneumoniae serotype 2 (strain D39 / NCTC 7466), UniProt Q9FD53); assay: S. pneumoniae DPM-DC inhibition retest, confirmation, biochemical, cuvette format, coupled NADH fluorescence (AID 1028); type: functional
Sequence of Diphosphomevalonate decarboxylase (Q9FD53 whole entry): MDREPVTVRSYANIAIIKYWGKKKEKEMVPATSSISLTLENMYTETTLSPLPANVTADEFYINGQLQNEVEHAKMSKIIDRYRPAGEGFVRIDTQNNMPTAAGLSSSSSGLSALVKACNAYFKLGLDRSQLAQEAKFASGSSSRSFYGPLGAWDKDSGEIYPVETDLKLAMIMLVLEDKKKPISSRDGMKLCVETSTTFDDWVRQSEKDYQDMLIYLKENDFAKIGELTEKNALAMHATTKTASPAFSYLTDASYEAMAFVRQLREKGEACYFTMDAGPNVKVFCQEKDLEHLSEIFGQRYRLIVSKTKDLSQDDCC

T1 sequence (O95136 whole entry): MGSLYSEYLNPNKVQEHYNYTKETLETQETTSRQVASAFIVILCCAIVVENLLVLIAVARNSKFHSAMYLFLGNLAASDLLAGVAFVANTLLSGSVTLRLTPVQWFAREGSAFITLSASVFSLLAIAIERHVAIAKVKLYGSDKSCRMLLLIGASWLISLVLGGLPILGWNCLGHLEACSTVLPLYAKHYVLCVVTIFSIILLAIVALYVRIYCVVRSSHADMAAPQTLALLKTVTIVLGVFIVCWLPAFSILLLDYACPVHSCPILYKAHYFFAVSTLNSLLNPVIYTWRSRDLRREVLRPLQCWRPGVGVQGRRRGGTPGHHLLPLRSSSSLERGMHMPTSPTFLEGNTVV

Cc1cc(C(=O)CN(C)Cc2ccco2)c(C)n1Cc1ccccc1
EC50 [1]: > 30 µM (not active)

COc1ccc(/C=N/NC(=O)c2sc3nc(C)cc(C)c3c2N)cc1
IC50 [2]: > 50 µM (not active)
IC50 [3]: > 50 µM (inactive)

COCCCNC(=O)c1c(N)n(-c2ccc(S(N)(=O)=O)cc2)c2nc3ccccc3nc12
IC50 [4]: > 5.47 µM (active)
IC50 [5]: > 111 µM (not active)

c1ccc(OCCSc2nnnn2-c2ccccc2)cc1
EC50 [6]: > 50 µM (not active)

COc1ccc(OC)c(NC(=O)CCN2CCCC(C)C2)c1 (stereo unspecified)
IC50 [7]: > 50 µM (not active)

CCOC(=O)c1c(NC(=O)CN(C)C2CCN(C)CC2)sc(C(=O)Nc2ccccc2)c1C
IC50 [8]: 24.3 µM (active)
CC50 [9]: 100 µM (active)
IC50 [10]: 76.9 µM (active)

CN1c2ccc(Br)cc2Sc2cc(C(=O)c3ccc(N=[N+]=[N-])cc3)ccc21
IC50 [11]: 13.7 µM (active)

CS(=O)(=O)N1CCN(c2ccccc2NC(=O)Cc2ccccc2)CC1
IC50 [12]: 68.8 µM (not active)

COC(=O)c1ccc(N2NC(=O)/C(=C/c3ccc(-c4ccc(Cl)c(C(=O)O)c4)o3)C2=O)cc1
EC50 [13]: > 150 µM (inconclusive)
IC50 [14]: 28.6 µM (active)
EC50 [15]: > 38 µM (not active)
IC50 [16]: 75.8 µM (active)
IC50 [17]: 11.9 µM (active)
IC50 [18]: 2.15 µM (active)

CNc1ccccc1C(=O)OCC(=O)c1ccccc1
AC50 [19]: 2 µM (inconclusive)

CCN(C(=O)c1ccc(C(C)(C)C)cc1)c1nnc(Cn2nnc3ccccc32)s1
IC50 [20]: 83.8 µM (not active)
IC50 [21]: 7.74 µM (active)
IC50 [22]: 3.21 µM (active)
AC50 [23]: 1.35 µM (active)
AC50 [24]: 1.55 µM (active)
AC50 [25]: 2 µM (active)

O=C(NCc1ccccc1)c1ccccc1-n1sc2ccccc2c1=O
IC50 [26]: 12.4 µM (active)
